The values below come from patent US20240083857A1, “2-Methyl-Quinazolines” (Bayer Pharma Aktiengesellschaft, priority 2017, published 2024).

pIC50: −log10 of the molar value. Like-named read-outs stand apart in the source and are kept apart here.

In assay [1] the target is human SOS1 (nucleotide exchange of K-Ras^G12C) (Homo sapiens, UniProt Q07889). Description: Biochemical assay 2: K-Ras^G12C activation assay by hSOS1 at high GTP concentration (HTRF). As to conditions: high GTP; read-out: Assay 2 (KRAS-Activation by SOS high GTP) activity expressed as IC50. A general note: TR-FRET usually uses a lanthanide donor and a delayed reading to cut background.

The target of assay [2] is Epidermal Growth Factor Receptor (EGFR) (Homo sapiens (Human), UniProt P00533). Description: EGFR kinase assay (TR-FRET). It is filed as biochemical. As to conditions: read-out: EGFR kinase inhibition IC50; for IC50: values given in μM. The method in brief: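 EGFR purified from A431 cells was preincubated with compound 15 min at 22° C in pH 7.0 Hepes buffer with MgCl2, MnCl2 and vanadate before reaction with a biotinylated peptide. After EDTA stop, phosphopeptide was detected by TR-FRET (anti-phosphotyrosine Tb-cryptate, streptavidin-XL665) as the 665/620 nm emission ratio.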
Epidermal Growth Factor Receptor (EGFR), sequence (P00533 25-1210): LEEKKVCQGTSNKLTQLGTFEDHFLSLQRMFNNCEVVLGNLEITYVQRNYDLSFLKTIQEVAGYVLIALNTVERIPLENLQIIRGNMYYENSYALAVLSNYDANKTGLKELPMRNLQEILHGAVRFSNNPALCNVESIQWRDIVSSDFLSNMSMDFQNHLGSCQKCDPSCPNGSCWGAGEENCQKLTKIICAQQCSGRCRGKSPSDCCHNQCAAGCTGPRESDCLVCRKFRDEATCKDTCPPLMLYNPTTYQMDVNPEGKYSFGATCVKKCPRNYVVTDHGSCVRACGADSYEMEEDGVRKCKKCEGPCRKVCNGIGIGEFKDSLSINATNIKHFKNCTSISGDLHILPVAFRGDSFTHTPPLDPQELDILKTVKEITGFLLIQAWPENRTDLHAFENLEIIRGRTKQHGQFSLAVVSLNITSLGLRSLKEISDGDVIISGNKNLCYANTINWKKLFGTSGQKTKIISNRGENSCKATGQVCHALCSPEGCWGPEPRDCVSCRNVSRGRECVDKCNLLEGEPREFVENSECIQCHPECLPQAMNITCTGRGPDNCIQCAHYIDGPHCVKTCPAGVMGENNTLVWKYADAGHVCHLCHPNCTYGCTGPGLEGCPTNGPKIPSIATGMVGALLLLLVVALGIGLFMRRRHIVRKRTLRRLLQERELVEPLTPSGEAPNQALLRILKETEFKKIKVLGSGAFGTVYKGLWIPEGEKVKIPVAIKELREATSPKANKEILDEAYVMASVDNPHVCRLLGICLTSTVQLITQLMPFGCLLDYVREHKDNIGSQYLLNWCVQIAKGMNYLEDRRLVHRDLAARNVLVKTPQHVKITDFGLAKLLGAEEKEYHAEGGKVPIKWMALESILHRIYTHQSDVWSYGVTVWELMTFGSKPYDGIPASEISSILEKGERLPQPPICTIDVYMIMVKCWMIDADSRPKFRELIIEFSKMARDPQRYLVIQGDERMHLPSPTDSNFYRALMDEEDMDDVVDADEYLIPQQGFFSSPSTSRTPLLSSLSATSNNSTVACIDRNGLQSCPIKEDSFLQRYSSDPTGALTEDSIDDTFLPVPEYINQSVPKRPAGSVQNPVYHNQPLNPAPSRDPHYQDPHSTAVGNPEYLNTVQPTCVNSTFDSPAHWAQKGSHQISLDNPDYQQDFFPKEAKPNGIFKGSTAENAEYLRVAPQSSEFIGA

`COc1cc2nc(C)nc(NC(C)c3ccc(-c4ccccc4OCCN4CCCC4)s3)c2cc1OC` (stereo not drawn) [Example 325, 6,7-di methoxy-2-methyl-N-[1-(5-{2-[2-(pyrrolidin-1-yl)ethoxy]phenyl}thiophen-2-yl)ethyl]quinazolin-4-amine]: in assay [1], the pIC50 was 6.35. Further, the IC50 in assay [2] was above 20 µM.
For the compound `COc1cc2nc(C)nc(NC(C)c3cccc4sc(C)cc34)c2cc1OC` (stereo not drawn) [Example 330, 6,7-dimethoxy-2-methyl-N-[1-(2-methyl-1-benzothiophen-4-yl)ethyl]quinazolin-4-amine], in assay [1], the pIC50 was 6.44. For the same compound, the 50% inhibitory concentration (IC50) in assay [2] was above 20 µM.
The like results for `COc1cc2nc(C)nc(NC(C)c3ccnc4sccc34)c2cc1OC` (stereo not drawn) [Example 331, 6,7-dimethoxy-2-methyl-N-[1-(thieno[2,3-b]pyridin-4-yl)ethyl]quinazolin-4-amine] were, in that order, 6.00 and above 20 µM.
The like results for `COc1cc2nc(C)nc(NC(C)c3cncc4sccc34)c2cc1OC` (stereo not drawn) [Example 332, 6,7-dimethoxy-2-methyl-N-[1-(thieno[2,3-c]pyridin-4-yl)ethyl]quinazolin-4-amine] were, in that order, 5.58 and above 20 µM.
On to `COc1cc2nc(C)nc(NC(C)c3nccc4sccc34)c2cc1OC` (stereo not drawn) [Example 333, 6,7-dimethoxy-2-methyl-N-[1-(thieno[3,2-c]pyridin-4-yl)ethyl]quinazolin-4-amine], for which the pIC50 in assay [1] is 5.21; in assay [2] (unit inferred), 4.79.
Take `COc1cc2nc(C)nc(N[C@H](C)c3cccc(-c4c(C)n[nH]c4C)c3)c2cc1OC` [Example 334, N-{(1R)-1-[3-(3,5-dimethyl-1H-pyrazol-4-yl)phenyl]ethyl}-6,7-dimethoxy-2-methylquinazolin-4-amine]: the pIC50 in assay [1] is 6.11. In assay [2], the IC50 was above 20 µM.
For `COc1cc2nc(C)nc(N[C@H](C)c3cccc(-c4cn[nH]c4C)c3)c2cc1OC` [Example 335, 6,7-dimethoxy-2-methyl-N-{(1R)-1-[3-(5-methyl-1H-pyrazol-4-yl)phenyl]ethyl}quinazolin-4-amine], in that order: 6.43 and above 20 µM.
For `COc1cc2nc(C)nc(N[C@H](C)c3cccc(-c4c(C)noc4C)c3)c2cc1OC` [Example 336, N-{(1R)-1-[3-(3,5-dimethyl-1,2-oxazol-4-yl)phenyl]ethyl}-6,7-dimethoxy-2-methyl-quinazolin-4-amine], in that order: 5.90 and above 20 µM.
For `COc1cc2nc(C)nc(N[C@H](C)c3cccc(-c4ccn[nH]4)c3)c2cc1OC` [Example 337, 6,7-dimethoxy-2-methyl-N-{(1R)-1-[3-(1H-pyrazol-5-yl)phenyl]ethyl}quinazolin-4-amine], in that order: 6.09 and above 20 µM.
For `COc1cc2nc(C)nc(N[C@H](C)c3cccc(-c4cnn(C)c4)c3)c2cc1OC` [Example 338, 6,7-dimethoxy-2-methyl-N-{(1R)-1-[3-(1-methyl-1H-pyrazol-4-yl)phenyl]ethyl}quinazolin-4-amine], in assay [1], the pIC50 was 6.08. In addition, in assay [2], the IC50 was above 20 µM.
As to `COc1cc2nc(C)nc(N[C@H](C)c3cccc(-c4ccnn4C)c3)c2cc1OC` [Example 339, 6,7-dimethoxy-2-methyl-N-{(1R)-1-[3-(1-methyl-1H-pyrazol-5-yl)phenyl]ethyl}quinazolin-4-amine], the pIC50 in assay [1] was 5.86. In assay [2], the IC50 is above 20 µM.
For `COc1cc2nc(C)nc(N[C@H](C)c3cccc(-n4ccnc4)c3)c2cc1OC` [Example 340, N-{(1R)-1-[3-(1H-imidazol-1-yl)phenyl]ethyl}-6,7-dimethoxy-2-methylquinazolin-4-amine], in that order: 6.04 and above 20 µM.

By pIC50 is commonly meant the IC50 on a negative log10 scale, so that one unit is a factor of ten. The IC50 is the concentration that gives 50% inhibition.
